The values below come from paper PMC9416745, “The Effect of 1,2,4-Triazole-3-thiol Derivatives Bearing Hydrazone Moiety on Cancer Cell Migration and Growth of Melanoma, Breast, and Pancreatic Cancer Spheroids” (Pharmaceuticals, 2022).

Data set [1] relates to human malignant melanoma cell line IGR39. Briefly: MTT cell viability assay, IGR39. The class given is cell-based. The protocol: (§1) The effect of synthesized compounds on cell viability was studied using 3-(4,5-dimethylthiazol-2-yl)-2,5-diphenyltetrazolium bromide (MTT; Sigma-Aldrich Co., St Louis, MO, USA) assay, as described elsewhere. Briefly, IGR39, MDA-MB-231, Panc-1, and HF cells were seeded in 96-well plates (Corning) in triplicate at a volume of 100 μL (IGR39, MDA-MB-231 and Panc-1: 4 × 10^3 cells/well; HF: 5 × 10^3 cells/well). After 24 h, cells were treated with 50 μM of tested compounds. After 72 h, the MTT reagent was added and cells were incubated for 4 h. Then the medium was aspirated, and the formed formazan crystals were dissolved in 100 μL DMSO (Sigma-Aldrich Co., St. Louis, MO, USA). The absorbance was measured at 570 and 630 nm using a multi-detection microplate reader. The compound effect on cell viability was calculated using the formula:(1) Relative cell viability (%)=A−A0/ANC−A0 where
(§2) • A—mean of absorbance of the tested compound, • A0—mean of absorbance of blank (no cells, positive control), and • ANC—mean of absorbance of negative control (only cells, no treatment).
(§3) The compound serial dilutions from 50 µM to 1.56 µM were made in a medium and added to the cells in triplicates. The EC50 value representing the concentration of a compound causing 50% reduction of cancer cell metabolic activity was calculated using the Hill equation.
On the technique in general: Tetrazolium assays rely on reduction of a dye to a coloured formazan, in cell work by metabolically active cells.

Data set [2] deals with human pancreatic carcinoma cell line Panc-1. Kind of data set: MTT cell viability assay, Panc-1. It is filed as cell-based. The conditions noted are these: 72 h, serial dilutions 50-1.56 µM, n = 3, read-out: EC50 against Panc-1. The method, then: as §1, §2, §3
In data set [3] the test system is Human foreskin fibroblasts (HF) CRL-4001. Kind of data set: MTT cell viability assay, fibroblasts. It is filed as cell-based. The conditions noted are these: 72 h. The method, then: as §1, §2, §3
Data set [4] has as its system MDA-MB-231 cell migration. Briefly: 'Wound healing' cell migration assay, MDA-MB-231. It is filed as cell-based, human. The conditions noted are these: 10 µM, both after 24 h and 48 h of incubation. The protocol:
(§4) Briefly, melanoma IGR39, human triple-negative breast cancer MDA-MB-231, and pancreatic carcinoma Panc-1 cells were seeded in 24-well plates at a density of 6 × 10^4 cells/well and incubated for 48 h in previously described cell culture medium at 37°C in a humidified atmosphere containing 5% CO2. Then the scratch was made using a 100 µL pipette tip. Cells were washed once with PBS, and the fresh medium containing 10 µM of compounds 4, 7, 8, 10, 14, 17, and 18 was added. Medium containing 0.1% DMSO was used as a negative control. Cells were incubated at 37 °C in a humidified atmosphere containing 5% CO2.
(§5) The ‘Wounds’ were captured at the intervals of 0 h, 24 h, 48 h and 72 h (only for the Panc-1 cell line) from scratch under the phase contrast microscope at a 4× magnification. The wound area was analysed using the ImageJ program (National Institute of Health, Bethesda, MD, USA).

The subject of data set [5] is IGR39, MDA-MB-231 and Panc-1 cell migration. Briefly: 'Wound healing' cell migration assay, stated for all tested cell lines. The class given is cell-based, human. The conditions noted are these: 10 µM, compared to the control. The method, then: as §4, §5
In data set [6] the test system is human triple-negative breast cancer MDA-MB-231. Kind of data set: MTT cell viability assay, MDA-MB-231. It is filed as cell-based. The protocol: as §1, §2, §3
Data set [7] relates to melanoma IGR39 spheroids. Briefly: 3D cell cultures (spheroids), IGR39. The class given is cell-based, human. The conditions noted are these: 10 µM, 8 days of incubation. The method, then:
(§6) Cancer cell spheroids were formed using the magnetic 3D Bioprinting method, as described elsewhere. Briefly, melanoma IGR39, triple-negative breast cancer MDA-MB-231 cells, pancreatic cancer Panc-1 cells, and human fibroblasts at 70% confluency in a 6-well plate were incubated with Nanoshuttle (n3D Biosciences, Inc., Houston, TX, USA) for 8 h at 37°C in a humidified atmosphere containing 5% CO2. Then cells were trypsinized, centrifuged, and seeded into an ultra-low attachment 96-well plate in a volume of 100 µL (1.5 × 10^3 cancer cells and 1.5 × 10^3 human fibroblasts/well). The plate was placed on a magnetic drive and incubated for 2 days at 37°C in a humidified atmosphere containing 5% CO2. Then the fresh medium containing 10 µM of the tested compound was added to the wells. Spheroids were captured every two days using the Olympus IX73 inverted microscope (OLYMPUS CORPORATION, Tokyo, Japan). Quantitative analysis of compound anticancer activity in spheroids was performed using ImageJ, version 1.53o (National Institutes of Health, USA) and Microsoft Office Excel 2016 software (Microsoft Corporation, Redmond, WA, USA).
(§7) On the last day of incubation, 10 µL of WST-1 reagent (Sigma-Aldrich Co, St. Louis, MO, USA) was added to each well with spheroids. After 10 h of incubation, 50 µL of liquid from each well were transferred to the new 96-well plate and the absorbance was measured at 460 and 530 nm using a multi-detection microplate reader. Spheroid cell viability was calculated using a formula provided in Section 3.2.2.

The subject of data set [8] is IGR39, MDA-MB-231 and Panc-1 tumour spheroids. Kind of data set: 3D cell cultures (spheroids), stated for all three spheroid types. The conditions noted are these: 10 µM, 8 days of incubation. It is filed as cell-based, human. The protocol: as §6, §7
In data set [9] the test system is IGR39, MDA-MB-231 and Panc-1 cell lines. Briefly: MTT cell viability assay, result stated for all tested cancer cell lines together. The class given is cell-based, human. The conditions noted are these: 72 h. The protocol: as §1, §2, §3

Each structure is given as a SMILES string.

For the compound `CCOC(=O)CSC1NN=C(CCNc2ccccc2)N1c1ccccc1` (centres unmarked) [Compound 2, Ethyl 2-((4-phenyl-3-(2-(phenylamino)ethyl)-4,5-dihydro-1H-1,2,4-triazol-5-yl)thio)acetate], the melting point (commonly the temperature, or range, at which the solid turns liquid) was 121 to 122 °C.
On the same count and under the same terms, in the case of `NNC(=O)CSc1nnc(CCNc2ccccc2)n1-c1ccccc1` [Compound 3, 2-((4-Phenyl-5-(2-(phenylamino)ethyl)-4H-1,2,4-triazol-3-yl)thio)acetohydrazide] it was 112 to 113 °C; in that of `COc1ccc2c(c1)C(=NNC(=O)CSc1nnc(CCNc3ccccc3)n1-c1ccccc1)C(=O)N2` [Compound 5, N′-(5-methoxy-2-oxoindolin-3-ylidene)-2-((4-phenyl-5-(2-(phenylamino)ethyl)-4H-1,2,4-triazol-3-yl)thio)acetohydrazide], 238 to 239 °C; in that of `O=C(CSc1nnc(CCNc2ccccc2)n1-c1ccccc1)NN=C1C(=O)Nc2ccc([N+](=O)[O-])cc21` [Compound 6, N′-(5-nitro-2-oxoindolin-3-ylidene)-2-((4-phenyl-5-(2-(phenylamino)ethyl)-4H-1,2,4-triazol-3-yl)thio)acetohydrazide], 274 to 275 °C.
In turn, `O=C(CSc1nnc(CCNc2ccccc2)n1-c1ccccc1)NN=C1C(=O)Nc2ccc(F)cc21` [Compound 7, N′-(5-fluoro-2-oxoindolin-3-ylidene)-2-((4-phenyl-5-(2-(phenylamino)ethyl)-4H-1,2,4-triazol-3-yl)thio)acetohydrazide] yielded a melting point of 266 to 267 °C. In addition, in data set [1] (50 µM, 72 h), the “activity against the IGR39 cell line (screening)” value is listed as “most active”.
Take `O=C(CSc1nnc(CCNc2ccccc2)n1-c1ccccc1)NN=C1C(=O)Nc2ccc(OC(F)(F)F)cc21` [Compound 8, N′-(2-oxo-5-(trifluoromethoxy)indolin-3-ylidene)-2-((4-phenyl-5-(2-(phenylamino)ethyl)-4H-1,2,4-triazol-3-yl)thio)acetohydrazide]: the melting point was in the range of 258 to 259 °C. Further, the EC50 (as a rule, the midpoint of the concentration-response curve) in data set [2] stood at 38.5 ± 1.6 µM. In [3] (compared with the other selected compounds), the cytotoxicity against fibroblasts result is on record as “lower cytotoxicity against fibroblasts”. For the same compound, the “activity against the IGR39 cell line (screening)” value in data set [1] (50 µM, 72 h) is recorded as “most active”.
`Cc1ccc(C=NNC(=O)CSc2nnc(CCNc3ccccc3)n2-c2ccccc2)cc1` [Compound 9, N′-(4-methylbenzylidene)-2-((4-phenyl-5-(2-(phenylamino)ethyl)-4H-1,2,4-triazol-3-yl)thio)acetohydrazide]: the melting point fell in the range of 189 to 190 °C.
Take `CN(C)c1ccc(C=NNC(=O)CSc2nnc(CCNc3ccccc3)n2-c2ccccc2)cc1` [Compound 10, N′-(4-(dimethylamino)benzylidene)-2-((4-phenyl-5-(2-(phenylamino)ethyl)-4H-1,2,4-triazol-3-yl)thio)acetohydrazide]: the melting point is 169 to 170 °C. The concentration for a half-maximal effect (EC50) in [2] was 26.2 ± 1 µM. Further, the MDA-MB-231 cell migration result in data set [4] is reported as “migrated slower”. For the same compound, in data set [3] (Homo sapiens, Fibroblast, serial dilutions 50-1.56 µM, n = 3, read-out: EC50 against fibroblasts), the EC50 was 61.4 ± 2.8 µM. For the same compound, the “effect on cell migration” value in data set [5] is “inhibited all cancer cell migration”. Further, in data set [6] (Homo sapiens, MDA-MB-231, 72 h, serial dilutions 50-1.56 µM, n = 3, read-out: EC50 against MDA-MB-231), the half-maximal effective concentration (EC50) came to 9.7 ± 1.6 µM. For the same compound, the “selectivity against the melanoma IGR39 cell line (screening)” value in data set [1] (50 µM, 72 h) is “moderate selectivity”. Moreover, the 50% effective concentration (EC50) in data set [1] (Homo sapiens, IGR-39, 72 h, serial dilutions 50-1.56 µM, n = 3, read-out: EC50 against IGR39) stood at 22.3 ± 2.5 µM.
Regarding `O=C(CSc1nnc(CCNc2ccccc2)n1-c1ccccc1)NN=Cc1ccncc1` [Compound 11, 2-((4-Phenyl-5-(2-(phenylamino)ethyl)-4H-1,2,4-triazol-3-yl)thio)-N′-(pyridin-4-ylmethylene)acetohydrazide], the melting point was in the range of 209 to 210 °C.
For `O=C(CSc1nnc(CCNc2ccccc2)n1-c1ccccc1)NN=Cc1cccnc1` [Compound 12, 2-((4-Phenyl-5-(2-(phenylamino)ethyl)-4H-1,2,4-triazol-3-yl)thio)-N′-(pyridin-3-ylmethylene)acetohydrazide], the melting point lay within 92 to 93 °C.
Still for that read-out and setting: in the case of `O=C(CSc1nnc(CCNc2ccccc2)n1-c1ccccc1)NN=Cc1ccc(C(=O)O)cc1` [Compound 13, 4-((2-(2-((4-Phenyl-5-(2-(phenylamino)ethyl)-4H-1,2,4-triazol-3-yl)thio)acetyl)hydrazono)methyl)benzoic acid] it was 233 to 234 °C; in that of `O=C(CSc1nnc(CCNc2ccccc2)n1-c1ccccc1)NN=Cc1c[nH]nc1-c1ccccc1` [Compound 15, N′-((3-phenyl-1H-pyrazol-4-yl)methylene)-2-((4-phenyl-5-(2-(phenylamino)ethyl)-4H-1,2,4-triazol-3-yl)thio)acetohydrazide], 119 to 120 °C; in that of `Cn1ccc(C=NNC(=O)CSc2nnc(CCNc3ccccc3)n2-c2ccccc2)n1` [Compound 16, N′-((1-methyl-1H-pyrazol-3-yl)methylene)-2-((4-phenyl-5-(2-(phenylamino)ethyl)-4H-1,2,4-triazol-3-yl)thio)acetohydrazide], 62 to 63 °C.
In turn, `O=C(CSc1nnc(CCNc2ccccc2)n1-c1ccccc1)NN=Cc1cc([N+](=O)[O-])ccc1O` [Compound 18, N′-(2-hydroxy-5-nitrobenzylidene)-2-((4-phenyl-5-(2-(phenylamino)ethyl)-4H-1,2,4-triazol-3-yl)thio)acetohydrazide] returned a melting point of 219 to 220 °C. In [7], the “melanoma IGR39 spheroid growth” value was “mostly inhibited”. The “activity in 3D cell cultures (spheroids)” value in data set [8] is given as “most active”. The “activity against all tested cancer cell lines (screening)” value in data set [9] (50 µM) was “most active”. Further, the 50% effective concentration (EC50) in data set [9] (Homo sapiens, range over cancer cell lines, read-out: EC50 values against the tested cancer cell lines (range)) lay within 2 to 17 µM.
As for `CSc1ccc(C=NNC(=O)CSc2nnc(CCNc3ccccc3)n2-c2ccccc2)cc1` [Compound 19, N′-(4-(methylthio)benzylidene)-2-((4-phenyl-5-(2-(phenylamino)ethyl)-4H-1,2,4-triazol-3-yl)thio)acetohydrazide], the melting point fell in the range of 196 to 197 °C. In addition, the “activity towards the triple-negative breast cancer cell line (screening)” value in [6] (50 µM, 72 h) was “relatively higher activity”. Besides, the “activity against the IGR39 cell line (screening)” value in data set [1] (50 µM, 72 h) is “least active”.
